According to ChEMBL document CHEMBL3882736, “Modulation microtubules diseases; antiproliferative agents; antiinflamamtory agents” (2011):

Columns and labels:
Tubulin (Homo sapiens) = Tubulin (Homo sapiens) (UniProt P68371+Q9H4B7+P0DPH7+P68366+Q13509+Q71U36+P04350+Q3ZCM7+P07437+P68363+Q9BQE3+Q6PEY2+Q13885+Q9BVA1+Q9BUF5); assay: Inhibition of tubulin (unknown origin) polymerization at 50 uM by turbidometric method relative to control; format: protein-complex assay
Summary of the method: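 Microtubule protein of unstated origin was incubated with compound at 0° C. Polymerisation was started with 1 mM GTP and heating to 37° C. in cuvettes, and absorbance at 340 nm was followed over time in a thermostatically controlled spectrophotometer. Inhibition of polymerisation is expressed as percent relative to control.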

[1] = Cytotoxicity against human PC3 cells assessed as growth inhibition at 20 uM after 40 hrs by MTT assay relative to control; format: functional; settings: PC-3, 40 h, read-out: GI
Summary of the method: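 Human tumour cells in late log phase were grown in their own media containing 10% FBS and dispensed at 90 µL per well (1.1× final, 50000 to 200,000 cell/mL) onto 10 µL of compound (10× final) in 96-well plates, taken from screening plates prepared at 20 µM. After 40 hr at 37° C. in 5% CO2, MTT was added for 6 hours, the cells were lysed overnight with SDS/HCl, and plates were read at 590 nm. Growth inhibition is expressed relative to control.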

Structure (SMILES)	inhibition (Tubulin (Homo sapiens)) [%]	inhibition of growth at 20 µM [1] [%]
CC[C@H](Nc1cncc(-c2ccc(O)c(OC)c2)n1)c1ccccc1	> 50	–
CCCC(Nc1cncc(-c2ccc(OCCCCN)c(OC)c2)n1)c1ccccc1 (centres undefined)	> 50	> 50
CCCC(Nc1cncc(-c2ccc(CNC(=O)C3CCCNC3)cc2)n1)c1ccccc1 (centres undefined)	> 50	> 50
CCCC(Nc1cncc(-c2ccc(OCCCCN3CCN(C)CC3)c(OC)c2)n1)c1ccccc1 (centres undefined)	> 50	> 50
CCCC(Nc1cncc(-c2ccc(NC(=O)NCCCN(CC)CC)c(OC)c2)n1)c1cccnc1 (centres undefined)	–	< 50
CCC[C@H](Nc1nc(-c2ccc(NC(=O)NCC)c(OC)c2)ncc1C)c1cccnc1 [LEXIBULIN]	> 50	> 50
CCCC(Nc1cncc(-c2ccc(OCCCN3CCCC3)c(OC)c2)n1)c1cccnc1 (centres undefined)	–	< 50
CCCC(Nc1cncc(-c2ccc(OCCCCN3CCCCC3)c(OC)c2)n1)c1ccccc1 (centres undefined)	> 50	> 50
CCCC(Nc1cncc(-c2ccc(C(=O)N3CCN(C)CC3)cc2)n1)c1ccccc1 (centres undefined)	–	< 50
CCCC(Nc1nc(-c2ccc(NC(=O)NCC)c(OC)c2)cnc1C)c1ccccc1 (centres undefined)	> 50	> 50
CCNC(=O)Nc1ccc(-c2cncc(NC(C)c3cccnc3)n2)cc1OC (centres undefined)	–	< 50
COc1cc(-c2cncc(NC(C)c3ccc(-c4cccnc4)cc3)n2)ccc1O (centres undefined)	> 50	–
CCCC(Nc1cncc(-c2cc(OC)c(OC)c(OC)c2)c1)c1ccccc1 (centres undefined)	–	> 50
CCCC(Nc1cncc(-c2ccc(OCCCN3CCOCC3)c(OC)c2)n1)c1ccccc1 (centres undefined)	–	> 50
CCCC(Nc1cncc(-c2ccc(NC(=O)NCC)c(CC)c2)n1)c1cccnc1 (centres undefined)	> 50	> 50
COc1cc(-c2ncc(C)c(NC(CCO)c3ccccc3)n2)ccc1O (centres undefined)	–	< 50
CCCC(Nc1cncc(-c2ccc(NC(=O)NCC)c(C)c2)n1)c1cnccc1C (centres undefined)	> 50	> 50
CCCC(Nc1cncc(-c2ccc(NC(=O)N3CCN(C)CC3)c(OC)c2)n1)c1cccnc1 (centres undefined)	–	> 50
CCCC(Nc1cncc(-c2ccc(CN(C)C)cc2)n1)c1ccccc1 (centres undefined)	–	< 50
CCCC(Nc1cncc(-c2ccc(NC(=O)NCC)c(C)c2)n1)c1ccccn1 (centres undefined)	> 50	> 50
CCCC(Nc1cncc(-c2ccc(OCCN(CC)CC)c(OC)c2)n1)c1ccccc1 (centres undefined)	> 50	> 50
CCCC(Nc1cncc(-c2ccc(NC(=O)NCC)c(OC)c2)n1)c1cccnc1 (centres undefined)	> 50	> 50
CCCC(Nc1cncc(-c2ccc(CN3CCCCC3)cc2)n1)c1ccccc1 (centres undefined)	–	< 50

Structure (SMILES)	inhibition (Tubulin (Homo sapiens)) [%]	inhibition of growth at 20 µM [1] [%]
CCNC(=O)Nc1ccc(-c2cncc(N[C@@H](COC)c3ccccc3)n2)cc1OC	> 50	> 50
CCCC(Nc1cncc(-c2ccc(NC(=O)NCC)c(C)c2)n1)c1cccnc1 (centres undefined)	> 50	> 50
CCCC(Nc1cncc(-c2ccc(NC(=O)NCCN(C)C)c(OC)c2)n1)c1cccnc1 (centres undefined)	> 50	> 50
CCCC(Nc1cncc(-c2ccc(NC(=O)NCC)c(OC)c2)n1)c1cnccc1C (centres undefined)	> 50	> 50
CCCC(Nc1cncc(-c2ccc(CO)c(OC)c2)n1)c1cccnc1 (centres undefined)	–	< 50
CCNC(=O)Nc1ccc(-c2ncc(C)c(N[C@@H](CC)c3cccnc3)n2)cc1OC	> 50	> 50
CCCC(Nc1cncc(-c2ccc(NC(=O)NCC)cc2)n1)c1cccnc1 (centres undefined)	–	< 50
CCCC(Nc1cncc(-c2ccc(OCCN(CC)CC)c(OC)c2)n1)c1cncc(C)c1 (centres undefined)	–	< 50
CCCC(Nc1nnc(C)c(-c2ccc(O)c(OC)c2)n1)c1ccccc1 (centres undefined)	> 50	> 50
CCCC(Nc1cncc(-c2cc(C)c(O)c(C)c2)c1)c1ccccc1 (centres undefined)	> 50	> 50
CCNC(=O)Nc1ccc(-c2cncc(N[C@@H](CC)c3cccnc3)n2)cc1OC	> 50	> 50
CCCC(Nc1cc(-c2ccc(O)c(OC)c2)ncn1)c1cccnc1 (centres undefined)	> 50	> 50
CCCC(Nc1cncc(-c2ccc(OCCCN3CCOCC3)c(OC)c2)n1)c1cccnc1 (centres undefined)	–	< 50
COc1cc(-c2nccc(N[C@@H](C)c3ccccc3)n2)ccc1O	> 50	> 50
CCC[C@H](Nc1nc(-c2ccc(O)c(OC)c2)ncc1C)c1cccnc1	> 50	> 50
CCCC(Nc1cncc(-c2ccc(CNC(=O)C3CCNCC3)cc2)n1)c1ccccc1 (centres undefined)	> 50	> 50
CCCC(Nc1cncc(-c2ccc(NC(=O)C3CCNCC3)c(OC)c2)n1)c1cccnc1 (centres undefined)	–	< 50
COc1cc(-c2nc(N[C@H](C)c3ccccc3)nnc2C)cc(OC)c1OC	–	< 50
CCC[C@H](Nc1cncc(-c2ccc(NC(=O)NCC)c(OC)c2)n1)c1cccnc1	> 50	> 50
CCNC(=O)Nc1ccc(-c2cncc(N[C@@H](COCC)c3ccccc3)n2)cc1OC	> 50	> 50
CCCC(Nc1cncc(-c2ccc(C(=O)NCCCN(CC)CC)cc2)n1)c1ccccc1 (centres undefined)	–	< 50
CCC[C@H](Nc1cc(-c2ccc(NC(=O)NCC)c(OC)c2)ncn1)c1cccnc1	> 50	> 50
CCCC(Nc1cncc(-c2ccc(CNC(=O)C3CCC(=O)N3)cc2)n1)c1ccccc1 (centres undefined)	–	< 50

Structure (SMILES)	inhibition (Tubulin (Homo sapiens)) [%]	inhibition of growth at 20 µM [1] [%]
COc1cc(-c2nc(N[C@H](C)c3ccccc3)nnc2C)ccc1O	–	< 50
CCCC(Nc1nnc(C)c(-c2cc(OC)c(OC)c(OC)c2)n1)c1ccccc1 (centres undefined)	–	< 50
CCC[C@H](Nc1cncc(-c2ccc(NC(=O)NCC)c(C)c2)n1)c1cccnc1	> 50	> 50
CCCC(Nc1cncc(-c2ccc(C(=O)N3CCOCC3)cc2)n1)c1ccccc1 (centres undefined)	–	< 50
COc1cc(-c2cc(N[C@@H](C)c3ccccc3)ncn2)ccc1O	> 50	> 50
COc1cc(-c2cncc(NC(C)c3cccc(NC(=O)[C@H]4CCCN4)c3)n2)ccc1O (some centres undefined)	> 50	–
CCCC(Nc1cncc(-c2ccc(C(=O)NCCCN3CCOCC3)cc2)n1)c1ccccc1 (centres undefined)	–	< 50
CCCC(Nc1cncc(-c2ccc(OCCCCO)c(OC)c2)n1)c1ccccc1 (centres undefined)	> 50	> 50
CCC[C@H](Nc1cncc(-c2ccc(NC(=O)NCC)c(OC)c2)n1)c1ccccc1	> 50	> 50
CCCC(Nc1cncc(-c2ccc(CO)cc2)n1)c1ccccc1 (centres undefined)	> 50	> 50
CCCC(Nc1cncc(-c2ccc(CN3CCN(C)CC3)cc2)n1)c1ccccc1 (centres undefined)	–	< 50
CCC[C@H](Nc1cncc(-c2ccc(NC(=O)CN(C)C)c(OC)c2)n1)c1cccnc1	–	> 50
CCCC(Nc1cncc(-c2ccc(CN3CCOCC3)cc2)n1)c1ccccc1 (centres undefined)	–	< 50
CCCC(Nc1cncc(-c2ccc(OCCCN3CCN(C)CC3)c(OC)c2)n1)c1cccnc1 (centres undefined)	–	< 50
COc1cc(-c2cncc(NC(C)c3cccc(NC(=O)c4cccnc4)c3)n2)ccc1O (centres undefined)	> 50	–
CCCC(Nc1cncc(-c2ccc(CN3CCC(O)CC3)cc2)n1)c1ccccc1 (centres undefined)	–	< 50
CCCC(Nc1cncc(-c2ccc(C(=O)NCCCCCN)c(C)c2)n1)c1cccnc1 (centres undefined)	–	< 50
CCCC(Nc1cncc(-c2ccc(C(=O)NCCN(C)C)cc2)n1)c1ccccc1 (centres undefined)	–	< 50
COc1cc(-c2cncc(N[C@@H](C)c3ccccc3)n2)ccc1O	> 50	–
CCCC(Nc1cncc(-c2ccc(CN3CCC[C@H]3CO)cc2)n1)c1ccccc1 (some centres undefined)	–	< 50
CCCC(Nc1cncc(-c2ccc(NC(=O)c3cccnc3)c(OC)c2)n1)c1cccnc1 (centres undefined)	–	< 50
CCCC(Nc1cncc(-c2ccc(OCCCCN3CCOCC3)c(OC)c2)n1)c1ccccc1 (centres undefined)	–	< 50
